Results as given in patent US20060166989A1, “2-naphthamide derivatives” (Bayer Healthcare AG, priority 2002, published 2006).

What was measured:
IP receptor = biological target: T1, IP receptor (Homo sapiens, UniProt P43119); experiment: Iloprost-induced cAMP production assay in HEL cells (Assay 2); assay type: cell-based; conditions: read-out: Activity grade assay 2
T1 construct: HEL cells were collected with centrifugation and washed with cAMP assay buffer; host or cells: HEL 92.1.7 human erythroleukemia cells
Description: [Iloprost-Induced cAMP Production Assay in HEL Cells] (Assay 2)
HEL cells were collected with centrifugation and washed with cAMP assay buffer (CAB: Hank's balanced salt solution, 17 mM Hepes, 0.1% bovine serum albumin, 1 mM IBMX, 0.4% DMSO, and 1 mM L-ascorbic acid sodium salt (pH 7.4)). Cells were suspended at the density of 2.5×10^5 cells/ml in CAB, and twenty thousand cells in 80 μl aliquot of cell suspension were put in a well of 96 well plate (Falcon). Then, 10 μl of compound solution diluted with 1% DMSO in CAB or buffer alone was added. The plate was incubated at 37° C. for 30 min. Then, another 10 μl containing 100 nM iloprost in CAB or buffer alone was added and further incubated at 37° C. for 30 min. cAMP content in the well was measured by a cAMP ELISA kit (Applied Biosystems, USA).
Results of Iloprost-induced cAMP production assay (Assay2) are shown in Examples and tables of the Examples below. For practical reasons, the compounds are grouped in three classes of activity as follows: A(=or<)0.1μM<B(=or<)1μM<C

T1 sequence (P43119 whole entry): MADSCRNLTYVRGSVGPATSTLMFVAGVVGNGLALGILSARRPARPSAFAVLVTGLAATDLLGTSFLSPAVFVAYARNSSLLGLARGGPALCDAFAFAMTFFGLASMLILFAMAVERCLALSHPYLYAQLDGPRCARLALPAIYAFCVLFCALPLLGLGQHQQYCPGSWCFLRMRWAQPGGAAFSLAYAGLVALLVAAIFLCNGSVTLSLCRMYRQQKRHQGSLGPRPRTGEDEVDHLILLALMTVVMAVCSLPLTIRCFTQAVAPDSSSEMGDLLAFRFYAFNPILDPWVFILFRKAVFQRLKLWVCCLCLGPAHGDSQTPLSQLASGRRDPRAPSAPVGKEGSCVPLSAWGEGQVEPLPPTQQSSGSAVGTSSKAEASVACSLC

Compound	IC50 (IP receptor) [nM]	melting point
Cc1cc(C)cc(COc2ccc3cc(C(=O)NC(Cc4ccccc4)C(=O)O)ccc3c2)c1 (stereo not shown) [Example 1-57]	100 to 1000	167 to 168 °C
Cc1ccc(COc2ccc3cc(C(=O)NC(Cc4ccccc4)C(=O)O)ccc3c2)cc1C (stereo not shown) [Example 1-58]	100 to 1000	189 °C
O=C(NC(Cc1ccccc1)C(=O)O)c1ccc2cc(OCc3ccc(F)cc3F)ccc2c1 (stereo not shown) [Example 1-59]	100 to 1000	199 °C
CC(Oc1ccc2cc(C(=O)NC(Cc3ccccc3)C(=O)O)ccc2c1)c1ccccc1 (stereo not shown) [Example 1-60]	100 to 1000	170 to 172 °C
O=C(NC(Cc1ccccc1)C(=O)O)c1ccc2cc(OCc3cccc([N+](=O)[O-])c3)ccc2c1 (stereo not shown) [Example 1-61]	< 100	193 to 194 °C
Cc1nc(COc2ccc3cc(C(=O)NC(Cc4ccccc4)C(=O)O)ccc3c2)cs1 (stereo not shown) [Example 1-62]	100 to 1000	208 °C
O=C(NC(Cc1ccccc1)C(=O)O)c1ccc2cc(OCCCn3cccc3)ccc2c1 (stereo not shown) [Example 1-63]	100 to 1000	195 °C
O=C(NC(Cc1ccccc1)C(=O)O)c1ccc2cc(OCCCc3ccccc3)ccc2c1 (stereo not shown) [Example 1-64]	100 to 1000	182 °C
CCCCOc1ccc2cc(C(=O)NC(Cc3ccccc3)C(=O)O)ccc2c1 (stereo not shown) [Example 1-65]	100 to 1000	209 °C
Nc1ccc(CC(NC(=O)c2ccc3cc(OCc4ccccc4)ccc3c2)C(=O)O)cc1 (stereo not shown) [Example 1-66]	> 1000	238 to 240 °C
O=C(NC(Cc1ccc2ccccc2c1)C(=O)O)c1ccc2cc(OCc3ccccc3)ccc2c1 (stereo not shown) [Example 1-67]	< 100	226 to 227 °C
CS(=O)(=O)Nc1ccc(CC(NC(=O)c2ccc3cc(OCc4ccccc4)ccc3c2)C(=O)O)cc1 (stereo not shown) [Example 1-68]	> 1000	236 to 237 °C
O=C(NC(Cc1ccncc1)C(=O)O)c1ccc2cc(OCc3ccccc3)ccc2c1 (stereo not shown) [Example 1-69]	100 to 1000	260 to 262 °C (dec.)
O=C(NC(Cc1ccccc1)C(=O)O)c1ccc2cc(OCc3cccc4ccccc34)ccc2c1 (stereo not shown) [Example 1-70]	100 to 1000	220 °C
O=C(NC(Cc1ccc(I)cc1)C(=O)O)c1ccc2cc(OCc3ccccc3)ccc2c1 (stereo not shown) [Example 1-71]	< 100	219 to 221 °C
O=C(NC(CCc1ccccc1)C(=O)O)c1ccc2cc(OCc3ccccc3)ccc2c1 (stereo not shown) [Example 1-72]	> 1000	223 to 225 °C
O=C(NC(Cc1ccc(-c2ccccc2)cc1)C(=O)O)c1ccc2cc(OCc3ccccc3)ccc2c1 (stereo not shown) [Example 1-73]	100 to 1000	250 to 252 °C
O=C(NC(Cc1ccccc1)C(=O)O)c1ccc2cc(OCC3CCCCC3)ccc2c1 (stereo not shown) [Example 1-74]	100 to 1000	220 °C
O=C(NC(Cc1ccc(-c2ccncc2)cc1)C(=O)O)c1ccc2cc(OCc3ccccc3)ccc2c1 (stereo not shown) [Example 1-75]	100 to 1000	247 to 249 °C (dec.)
O=C(NC(Cc1ccc(N2CCOCC2)cc1)C(=O)O)c1ccc2cc(OCc3ccccc3)ccc2c1 (stereo not shown) [Example 1-76]	> 1000	216 to 218 °C (dec.)
O=C(NC(Cc1ccccc1)C(=O)O)c1ccc2cc(OCCc3cccnc3)ccc2c1 (stereo not shown) [Example 1-77]	100 to 1000	113 °C

Compound	IC50 (IP receptor) [nM]	melting point
O=C(NC(Cc1ccccc1)C(=O)O)c1ccc2cc(OCCc3ccccn3)ccc2c1 (stereo not shown) [Example 1-78]	100 to 1000	143 °C
O=C(NC(Cc1c[nH]c2ccc(F)cc12)C(=O)O)c1ccc2cc(OCc3ccccc3)ccc2c1 (stereo not shown) [Example 1-79]	< 100	236 to 238 °C (dec.)
O=C(NC(Cc1c[nH]c2ncccc12)C(=O)O)c1ccc2cc(OCc3ccccc3)ccc2c1 (stereo not shown) [Example 1-80]	< 100	275 to 277 °C (dec.)
O=C(NC(Cc1ccccc1)C(=O)O)c1ccc2cc(OCCN3CCCC3)ccc2c1 (stereo not shown) [Example 1-81]	> 1000	234 °C
O=C(NC(Cc1ccccc1)C(=O)O)c1ccc2cc(OCCN3CCCCC3)ccc2c1 (stereo not shown) [Example 1-82]	> 1000	215 °C
O=C(NC(Cc1ccccc1)C(=O)O)c1ccc2cc(OCCc3ccncc3)ccc2c1 (stereo not shown) [Example 1-83]	< 100	190 °C
CC(Cc1ccccc1)(NC(=O)c1ccc2cc(OCc3ccccc3)ccc2c1)C(=O)O (stereo not shown) [Example 1-84]	100 to 1000	184 °C
O=C(NC(Cc1ccccc1)C(=O)O)c1ccc2cc(OCc3cccc(O)c3)ccc2c1 (stereo not shown) [Example 1-85]	< 100	157 °C
O=C(NC(Cc1ccccc1)C(=O)O)c1ccc2cc(OCCn3ccnc3)ccc2c1 (stereo not shown) [Example 1-86]	100 to 1000	172 °C (dec.)
O=C(NC(Cc1ccccc1)C(=O)O)c1ccc2cc(OCc3ccc[n+]([O-])c3)ccc2c1 (stereo not shown) [Example 1-87]	> 1000	252 °C (dec.)
O=C(NC(Cc1ccccc1)C(=O)O)c1ccc2cc(OCc3cccc(OCC4CCCCC4)c3)ccc2c1 (stereo not shown) [Example 1-88]	> 1000	180 °C
O=C(NC(Cc1ccccc1)C(=O)O)c1ccc2cc(OCc3cccc(OCC4CC4)c3)ccc2c1 (stereo not shown) [Example 1-89]	100 to 1000	179 °C
CCCCOc1cccc(COc2ccc3cc(C(=O)NC(Cc4ccccc4)C(=O)O)ccc3c2)c1 (stereo not shown) [Example 1-90]	100 to 1000	172 °C
CCOc1cccc(COc2ccc3cc(C(=O)NC(Cc4ccccc4)C(=O)O)ccc3c2)c1 (stereo not shown) [Example 1-91]	< 100	145 °C
CCCOc1cccc(COc2ccc3cc(C(=O)NC(Cc4ccccc4)C(=O)O)ccc3c2)c1 (stereo not shown) [Example 1-92]	100 to 1000	173 °C
CC(C)COc1cccc(COc2ccc3cc(C(=O)NC(Cc4ccccc4)C(=O)O)ccc3c2)c1 (stereo not shown) [Example 1-93]	100 to 1000	140 °C
CC(COc1ccc2cc(C(=O)NC(Cc3ccccc3)C(=O)O)ccc2c1)c1ccccc1 (stereo not shown) [Example 1-94]	< 100	160 °C
O=C(N[C@H](Cc1ccccc1)C(=O)O)c1ccc2cc(OCc3ccccc3)ccc2c1 [Example 2-1, N-[6-(benzyloxy)-2-naphthoyl]-D-phenylalanine]	< 100	179 °C
O=C(N[C@@H](Cc1ccccc1)C(=O)O)c1ccc2cc(Oc3ccccc3)ccc2c1 [Example 3-1, N-(6-phenoxy-2-naphthoyl)phenylalanine]	> 1000	179 to 180 °C
O=C(N[C@@H](Cc1ccccc1)C(=O)O)c1ccc2cc(NCc3ccccc3)ccc2c1 [Example 4-1, N-[6-(benzylamino)-2-naphthoyl]phenylalanine]	100 to 1000	172 °C
